Results as given in ChEMBL document CHEMBL1201862, “PubChem BioAssay data set” (2004).
Values belong to the molecule of their own block, whether it stands above or below them. Active and inactive are the calls of the source.

What was measured:
[1] = molecular target: Metabotropic glutamate receptor 3 (Rattus norvegicus, UniProt P31422); test: inhibition of rat mGlu3 glutamate signaling – HEK/GIRK cells, thallium flux, dose response (AID 651839); format: functional
[2] = molecular target: Potassium channel subfamily K member 9 (Homo sapiens, UniProt Q9NPC2); test: KCNK9 flux blockade, concentration-response – cell-based, FluxOR thallium flux, selectivity assay for TASK1 inhibitor project, SAR follow-up (AID 652211); format: functional;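 further: potency is for inhibitors of the channel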
[3] = molecular target: Potassium channel subfamily K member 3 (Homo sapiens, UniProt O14649); test: inhibition of human KCNK3 channel flux – CHO cells, FluxOR thallium flux, SAR follow-up (AID 652212); format: functional
[4] = molecular target: Metabotropic glutamate receptor 5 (Rattus norvegicus, UniProt P31424); test: Identification of a glycine sulfonamide based non-MPEP site positive allosteric potentiator (PAM) of mGlu5 (calcium_assay).; format: functional
[5] = molecular target: T1, Oxysterols receptor LXR-beta (Homo sapiens, UniProt P55055); format: functional, cell-based;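 further: agonist activity at LXR measured by a cell-based luminescence readout across a dose range, run as a counterscreen for daf-12 agonists; HEK293 cells with Gal4-LXR fusion and GAL4-driven luciferase reporter; potency for activation of Gal4-LXR reporter so compounds are agonists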
T1 sequence (P55055 whole entry): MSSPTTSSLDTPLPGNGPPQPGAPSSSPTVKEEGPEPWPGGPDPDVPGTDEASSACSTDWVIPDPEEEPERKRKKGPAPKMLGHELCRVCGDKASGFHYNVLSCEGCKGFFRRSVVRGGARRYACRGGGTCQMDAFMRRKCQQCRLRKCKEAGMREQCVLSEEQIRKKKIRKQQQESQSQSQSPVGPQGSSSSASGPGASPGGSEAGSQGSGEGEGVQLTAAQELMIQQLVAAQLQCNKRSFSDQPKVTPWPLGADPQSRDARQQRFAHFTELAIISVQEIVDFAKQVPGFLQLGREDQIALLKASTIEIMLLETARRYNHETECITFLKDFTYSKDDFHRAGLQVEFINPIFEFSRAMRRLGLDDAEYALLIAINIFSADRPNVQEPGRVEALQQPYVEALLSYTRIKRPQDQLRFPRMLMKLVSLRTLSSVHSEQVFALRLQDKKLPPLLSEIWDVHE

[6] = molecular target: Cytochrome P450 2C19 (Homo sapiens, UniProt P33261); test: qHTS Assay for Inhibitors and Substrates of Cytochrome P450 2C19. [Related pubchem assays: 410 ]; format: ADME; conditions: read-out: Potency
[7] = viability loss in CEM21 cells – cell-based, plate reader, dry powder, cytotoxicity control, dose response (AID 687026); format: functional
[8] = molecular target: Cytochrome P450 3A4 (Homo sapiens, UniProt P08684); conditions: Potency;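 further: confirmatory qHTS run detecting inhibitors and substrates of CYP3A4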
Sequence of Cytochrome P450 3A4 (P08684 whole entry): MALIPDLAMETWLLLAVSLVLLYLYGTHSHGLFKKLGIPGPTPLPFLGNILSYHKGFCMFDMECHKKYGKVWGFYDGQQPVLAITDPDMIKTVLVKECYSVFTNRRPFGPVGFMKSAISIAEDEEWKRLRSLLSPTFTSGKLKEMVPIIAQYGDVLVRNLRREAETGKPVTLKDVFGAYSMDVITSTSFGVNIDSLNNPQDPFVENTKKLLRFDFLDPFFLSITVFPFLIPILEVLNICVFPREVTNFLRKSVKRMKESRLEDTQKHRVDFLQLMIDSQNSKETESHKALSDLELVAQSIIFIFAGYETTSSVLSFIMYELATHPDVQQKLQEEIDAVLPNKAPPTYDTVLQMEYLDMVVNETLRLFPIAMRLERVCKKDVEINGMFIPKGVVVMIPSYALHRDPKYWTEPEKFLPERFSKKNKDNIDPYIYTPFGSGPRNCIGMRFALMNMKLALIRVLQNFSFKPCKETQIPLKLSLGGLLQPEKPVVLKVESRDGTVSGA

Sequence of Metabotropic glutamate receptor 3 (P31422 whole entry): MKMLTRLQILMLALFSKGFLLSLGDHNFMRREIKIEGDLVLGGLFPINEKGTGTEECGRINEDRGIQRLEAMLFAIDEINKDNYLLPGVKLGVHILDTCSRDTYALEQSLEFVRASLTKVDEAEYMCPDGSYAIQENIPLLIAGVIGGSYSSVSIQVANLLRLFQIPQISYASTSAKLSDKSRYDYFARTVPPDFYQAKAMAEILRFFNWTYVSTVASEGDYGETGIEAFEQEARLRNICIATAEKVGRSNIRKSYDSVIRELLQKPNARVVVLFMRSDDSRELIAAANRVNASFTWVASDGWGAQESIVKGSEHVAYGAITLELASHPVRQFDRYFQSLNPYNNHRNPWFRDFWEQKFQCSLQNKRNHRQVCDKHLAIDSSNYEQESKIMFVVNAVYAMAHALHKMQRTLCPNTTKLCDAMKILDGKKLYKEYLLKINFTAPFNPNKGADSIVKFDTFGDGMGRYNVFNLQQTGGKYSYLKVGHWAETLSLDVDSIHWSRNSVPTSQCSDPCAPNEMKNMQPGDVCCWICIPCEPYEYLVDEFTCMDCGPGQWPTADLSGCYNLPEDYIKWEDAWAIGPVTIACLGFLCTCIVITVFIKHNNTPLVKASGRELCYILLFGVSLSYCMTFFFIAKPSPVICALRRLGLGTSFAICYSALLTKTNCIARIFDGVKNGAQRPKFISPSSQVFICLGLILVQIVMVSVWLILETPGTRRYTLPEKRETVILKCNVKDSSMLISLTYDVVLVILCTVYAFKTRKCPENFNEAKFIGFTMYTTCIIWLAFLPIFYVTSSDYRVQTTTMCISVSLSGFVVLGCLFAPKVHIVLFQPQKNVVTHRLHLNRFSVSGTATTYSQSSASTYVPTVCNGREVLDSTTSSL
Sequence of Potassium channel subfamily K member 9 (Q9NPC2 whole entry): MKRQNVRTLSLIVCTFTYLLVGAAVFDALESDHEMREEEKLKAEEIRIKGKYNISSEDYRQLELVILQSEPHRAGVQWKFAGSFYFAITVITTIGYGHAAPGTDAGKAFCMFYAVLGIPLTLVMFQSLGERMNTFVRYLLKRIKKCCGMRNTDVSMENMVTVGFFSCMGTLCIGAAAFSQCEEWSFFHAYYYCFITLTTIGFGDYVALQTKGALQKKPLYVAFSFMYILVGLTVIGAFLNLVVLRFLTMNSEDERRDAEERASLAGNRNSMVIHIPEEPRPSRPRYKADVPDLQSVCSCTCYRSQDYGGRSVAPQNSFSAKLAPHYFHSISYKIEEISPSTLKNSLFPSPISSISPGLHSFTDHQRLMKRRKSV
Sequence of Potassium channel subfamily K member 3 (O14649 whole entry): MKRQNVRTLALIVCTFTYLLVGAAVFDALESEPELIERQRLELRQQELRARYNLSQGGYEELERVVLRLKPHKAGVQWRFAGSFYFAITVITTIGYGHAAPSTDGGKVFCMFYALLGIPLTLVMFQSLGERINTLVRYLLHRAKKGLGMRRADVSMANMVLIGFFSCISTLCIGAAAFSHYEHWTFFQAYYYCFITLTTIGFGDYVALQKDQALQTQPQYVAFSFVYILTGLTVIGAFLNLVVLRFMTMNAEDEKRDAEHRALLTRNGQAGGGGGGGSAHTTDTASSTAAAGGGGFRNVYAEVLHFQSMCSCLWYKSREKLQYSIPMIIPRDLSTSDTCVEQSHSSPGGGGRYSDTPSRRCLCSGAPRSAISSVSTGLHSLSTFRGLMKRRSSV
Sequence of Metabotropic glutamate receptor 5 (P31424 whole entry, the tested form may be a part): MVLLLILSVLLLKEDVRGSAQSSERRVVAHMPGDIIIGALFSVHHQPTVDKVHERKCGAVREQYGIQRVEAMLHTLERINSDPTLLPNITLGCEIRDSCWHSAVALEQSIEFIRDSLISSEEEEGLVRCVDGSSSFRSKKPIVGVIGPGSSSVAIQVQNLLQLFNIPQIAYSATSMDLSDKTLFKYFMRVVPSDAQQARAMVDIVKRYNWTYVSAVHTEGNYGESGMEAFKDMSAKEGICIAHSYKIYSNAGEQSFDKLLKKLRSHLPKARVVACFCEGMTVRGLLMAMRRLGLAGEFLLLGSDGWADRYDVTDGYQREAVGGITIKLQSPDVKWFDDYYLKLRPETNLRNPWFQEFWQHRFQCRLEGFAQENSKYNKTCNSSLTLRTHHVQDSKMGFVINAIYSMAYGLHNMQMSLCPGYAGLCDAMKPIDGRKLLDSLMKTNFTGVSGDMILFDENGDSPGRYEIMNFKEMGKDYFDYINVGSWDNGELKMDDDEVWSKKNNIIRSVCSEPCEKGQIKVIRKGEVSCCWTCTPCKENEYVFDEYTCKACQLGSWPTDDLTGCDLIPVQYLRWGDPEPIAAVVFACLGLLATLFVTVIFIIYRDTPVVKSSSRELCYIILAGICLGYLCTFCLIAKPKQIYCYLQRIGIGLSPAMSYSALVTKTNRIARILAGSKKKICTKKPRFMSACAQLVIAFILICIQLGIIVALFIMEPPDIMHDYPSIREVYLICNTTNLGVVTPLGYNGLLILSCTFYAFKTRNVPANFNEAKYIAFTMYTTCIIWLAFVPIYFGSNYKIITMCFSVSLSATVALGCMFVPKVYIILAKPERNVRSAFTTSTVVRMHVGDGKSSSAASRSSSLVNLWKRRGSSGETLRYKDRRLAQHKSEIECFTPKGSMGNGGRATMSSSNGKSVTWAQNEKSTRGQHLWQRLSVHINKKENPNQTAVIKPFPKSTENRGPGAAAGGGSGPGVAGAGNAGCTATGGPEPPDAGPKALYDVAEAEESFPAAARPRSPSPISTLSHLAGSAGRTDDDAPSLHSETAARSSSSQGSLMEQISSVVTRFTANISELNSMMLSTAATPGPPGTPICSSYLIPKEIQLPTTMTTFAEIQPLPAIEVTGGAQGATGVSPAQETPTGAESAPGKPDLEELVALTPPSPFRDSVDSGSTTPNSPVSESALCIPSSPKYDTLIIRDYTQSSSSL
Sequence of Cytochrome P450 2C19 (P33261 whole entry): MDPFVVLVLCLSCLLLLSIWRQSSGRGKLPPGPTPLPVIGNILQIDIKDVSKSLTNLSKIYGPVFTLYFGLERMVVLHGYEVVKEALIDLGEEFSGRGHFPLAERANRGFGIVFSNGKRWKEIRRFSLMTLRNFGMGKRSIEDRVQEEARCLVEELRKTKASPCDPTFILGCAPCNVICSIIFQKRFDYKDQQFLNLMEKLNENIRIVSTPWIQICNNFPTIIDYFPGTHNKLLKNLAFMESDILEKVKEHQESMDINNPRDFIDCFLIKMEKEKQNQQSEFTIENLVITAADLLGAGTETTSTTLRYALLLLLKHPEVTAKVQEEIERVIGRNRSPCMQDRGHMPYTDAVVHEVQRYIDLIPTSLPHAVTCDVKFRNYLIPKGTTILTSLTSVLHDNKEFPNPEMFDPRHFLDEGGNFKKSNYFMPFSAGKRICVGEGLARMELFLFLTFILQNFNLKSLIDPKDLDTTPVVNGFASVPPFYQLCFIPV

Compound: Cc1scc(C(=O)N/N=C/c2ccsc2)c1C
EC50 [5]: > 67.6 µM (inactive)

Compound: N=C1Sc2ccccc2C2=NCCCN12
AC50 [6]: 6.31 µM (inconclusive)
AC50 [7]: > 70 µM (inactive)
AC50 [8]: 25.1 µM (inconclusive)

Second part, the molecule after the results:

IC50 [1]: 9.87 µM (active)
Compound: COc1ccc(-c2ccc3cc(C(=O)N4CCCC(CO)C4)ccc3c2)c(OC)c1 (stereo not drawn)

IC50 [2]: 0.24 µM (active)
IC50 [3]: 0.003 µM (active)
Compound: COc1ccccc1C(=O)Nc1cccc(NC(=O)c2cccc3ccccc23)c1

EC50 [4]: 10 µM (inconclusive)
Compound: CC(C(=O)Nc1ccc(F)nc1)N(c1ccccc1Cl)S(C)(=O)=O (stereo not drawn)
